One test deals with naive cells. Kind of test: Pluripotency (Oct4-GFP) after passaging with DNA methylation or EED inhibitors. The class given is cell-based, human and mouse. The settings on record: Oct4-GFP reporter.
In the next test the test system is naive hESCs/hiPSCs. The test can be described thus: Substitution of p38 inhibitor in WIS-NHSM, OCT4-GFP expression. In kind it is cell-based, human. The settings on record: used instead of SB203580 in WIS-NHSM.
Another test addresses T1, Mbd3 binding to Chd4 (Homo sapiens, UniProt O95983).
T1 construct: expressed in transfected cells; host or cells: 293T cells
T1 sequence (O95983 1-291): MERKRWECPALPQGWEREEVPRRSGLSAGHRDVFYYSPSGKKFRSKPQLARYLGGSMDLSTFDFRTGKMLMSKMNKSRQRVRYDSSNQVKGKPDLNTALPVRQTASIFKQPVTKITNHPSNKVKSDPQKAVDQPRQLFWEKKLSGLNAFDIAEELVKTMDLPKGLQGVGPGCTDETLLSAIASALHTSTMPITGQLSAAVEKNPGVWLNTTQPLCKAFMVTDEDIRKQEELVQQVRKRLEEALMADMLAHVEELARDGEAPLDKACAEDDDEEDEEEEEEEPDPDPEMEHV
Kind of test: Co-immunoprecipitation of Flag-Mbd3 interacting proteins in 293T cells. In kind it is cell-based. The settings on record: Flag-Mbd3 IP. From the text: 293T cells were transfected with both with Flag-Mbd3 (WT) and P66a-CC (SEQ ID NO:71; GenBank Accession NO. NM_017660.3) or a control vector (mCherry), Mbd3 15 interacting proteins were pulled down by immunoprecipitation (IP) using Flag-magnetic beads.
The present inventors overexpressed MBD3-WT (SEQ ID NO: 112) and the HA-tagged p66u-CC in 293T cells, and further show in a co-immunoprecipitation for anti-Mbd3 pulldown, that the presence of p66u inhibits MBD3 binding and recruitment to CHD4 (FIG. 93).

The subject of the next test is MBD3. Kind of test: Western blot for MBD3 protein expression in V6.5 mouse ES cells after 4 days treatment. In kind it is cell-based. The settings on record: 2i/LIF plus agent at 5 micromolar. From the text: FIGS. 1O1A-101B are Western blot analyses showing expression of MBD3 (FIG. 101B) and of HSP90 (FIG. 101A) in v6.5 mouse ES cells after different treatments. V6.5 mouse ES cells were expanded for 4 days in the indicated conditions and subjected to Western blot analysis for MBD3 protein expression. Following are the abbreviations and concentrations of the indicated factors and agents. PBS=phosphate buffered saline; “LIF”=leukemia inhibitory factor, provided at a concentration of 20 nanograms/milliliter (ng/ml); KSR=knockout serum replacement; “2i/LIF”=small-molecule inhibitors CHIR99021 (CH, 3 M—Axon Medchem) and PD0325901 (PD, 1 M—TOCRIS), with 20 ng/ml LIF; “DMSO”=Dimethyl sulfoxide at a concentration of 0.1%; TGFRi (inhibitor of transforming growth factor receptor; SB431542 at 5 micromolar); PKC-i (inhibitor of protein kinase C; Go6983 at 5 micromolar).
V6.5 mouse ES cells were expanded for 4 days in various conditions in order to identify combination of factors which result in reduced MBD3 protein levels.
Background: Immunoblotting shows a protein as a band on a membrane.

The next test relates to primed hESCs and hiPSCs. The test can be described thus: Single-cell cloning efficiency, primed cells. The settings on record: in the presence of ROCK inhibitor. In kind it is cell-based, human. From the text:
(§1) FIGS. 74A-74D depict enhanced growth rate and single cell cloning efficiency of human naive pluripotent stem cells. FIG. 74A—Population doubling time of various mouse and human pluripotent stem cell lines. After plating each cell lines in replicates, cells were harvested at days 2,4 and 6 and there growth was normalized by counting cell number at each stage and calculating growth rate relative to the number of cells harvested and counted at day 2 (rather than number of plated cells to account for variability in survival after plating). Error bars represent s.d., and P values represent t-test of average from primed hESC/hiPSC lines to average of naive hESC/hiPSC lines. FIG. 74B—Single-cell cloning efficiency of different pluripotent stem cell lines as determined by the number of wells containing NANOG+ colonies 6 days after plating (with or without ROCK inhibitor as indicated in the figure). * indicates student's t-test P value <0.01 between the average of the compared groups. Error bars indicate s.d. […] Single-cell cloning efficiency of different pluripotent stem cell lines as determined by the number of wells containing Nanog+ colonies 6 days after plating (without using ROCK inhibitor as indicated in the figure). * indicates student's t-test P value <0.01 between the average of the compared groups. […]

In a further test the test system is naive hPSCs. Kind of test: Single-cell cloning efficiency, naive cells. In kind it is cell-based, human. The conditions noted are these: in the presence of ROCK inhibitor.
Text: as §1

A further test deals with PKCα (Homo sapiens, UniProt P17252). The settings on record: read-out: IC50 for PKCu; cited from earlier work.
A further test concerns the target T2, PKCμ (Homo sapiens, UniProt Q15139).
T2 sequence (Q15139 1-912): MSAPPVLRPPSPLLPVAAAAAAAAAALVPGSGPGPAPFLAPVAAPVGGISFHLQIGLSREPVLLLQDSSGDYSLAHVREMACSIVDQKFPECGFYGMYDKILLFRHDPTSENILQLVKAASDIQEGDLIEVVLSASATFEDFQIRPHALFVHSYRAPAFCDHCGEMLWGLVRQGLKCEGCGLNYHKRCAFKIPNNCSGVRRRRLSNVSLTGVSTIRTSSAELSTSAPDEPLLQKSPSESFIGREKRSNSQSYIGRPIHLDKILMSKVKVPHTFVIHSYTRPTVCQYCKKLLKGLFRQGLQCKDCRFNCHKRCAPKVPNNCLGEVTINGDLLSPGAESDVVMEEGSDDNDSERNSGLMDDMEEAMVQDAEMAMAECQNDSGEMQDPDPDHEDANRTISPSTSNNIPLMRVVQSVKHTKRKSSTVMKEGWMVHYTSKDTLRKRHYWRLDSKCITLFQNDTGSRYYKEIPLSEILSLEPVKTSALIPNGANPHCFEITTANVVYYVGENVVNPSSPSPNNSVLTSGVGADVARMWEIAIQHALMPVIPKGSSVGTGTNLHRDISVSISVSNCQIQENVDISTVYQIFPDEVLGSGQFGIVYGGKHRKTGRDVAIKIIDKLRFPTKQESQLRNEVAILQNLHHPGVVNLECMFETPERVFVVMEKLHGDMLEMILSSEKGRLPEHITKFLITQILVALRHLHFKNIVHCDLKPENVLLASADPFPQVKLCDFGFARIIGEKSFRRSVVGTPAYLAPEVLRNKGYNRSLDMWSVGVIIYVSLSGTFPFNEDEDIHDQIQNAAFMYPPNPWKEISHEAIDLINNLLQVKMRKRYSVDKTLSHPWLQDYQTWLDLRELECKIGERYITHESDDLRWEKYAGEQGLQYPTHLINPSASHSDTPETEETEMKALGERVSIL
The settings on record: read-out: IC50 for PKCp; cited from earlier work.

The next test deals with PKCδ (Homo sapiens, UniProt Q05655). The settings on record: read-out: IC50 for PKC6; cited from earlier work.
Chain of PKCδ (Q05655 whole entry): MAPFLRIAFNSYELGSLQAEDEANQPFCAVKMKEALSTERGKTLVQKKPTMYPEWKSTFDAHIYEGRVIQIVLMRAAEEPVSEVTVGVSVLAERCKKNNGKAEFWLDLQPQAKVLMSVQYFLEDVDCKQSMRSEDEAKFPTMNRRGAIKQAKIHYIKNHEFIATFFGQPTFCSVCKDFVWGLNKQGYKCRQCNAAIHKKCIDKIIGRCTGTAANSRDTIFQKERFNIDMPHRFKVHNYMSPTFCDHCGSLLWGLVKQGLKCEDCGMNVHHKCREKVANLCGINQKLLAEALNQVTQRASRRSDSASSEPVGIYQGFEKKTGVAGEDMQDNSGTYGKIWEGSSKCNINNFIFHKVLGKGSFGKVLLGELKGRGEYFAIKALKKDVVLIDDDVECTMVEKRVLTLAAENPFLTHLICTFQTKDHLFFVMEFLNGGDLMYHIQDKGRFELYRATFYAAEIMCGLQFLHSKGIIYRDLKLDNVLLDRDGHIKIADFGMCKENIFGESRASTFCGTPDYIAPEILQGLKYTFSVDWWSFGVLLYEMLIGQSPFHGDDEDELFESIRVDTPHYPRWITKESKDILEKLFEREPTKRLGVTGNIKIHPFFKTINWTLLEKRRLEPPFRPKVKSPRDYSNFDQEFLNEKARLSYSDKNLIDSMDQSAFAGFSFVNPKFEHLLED
For another test, the target named is PKCβ (Homo sapiens, UniProt P05771). The settings on record: read-out: IC50 for PKC0; cited from earlier work.
Chain of PKCβ (P05771 whole entry, species assumed): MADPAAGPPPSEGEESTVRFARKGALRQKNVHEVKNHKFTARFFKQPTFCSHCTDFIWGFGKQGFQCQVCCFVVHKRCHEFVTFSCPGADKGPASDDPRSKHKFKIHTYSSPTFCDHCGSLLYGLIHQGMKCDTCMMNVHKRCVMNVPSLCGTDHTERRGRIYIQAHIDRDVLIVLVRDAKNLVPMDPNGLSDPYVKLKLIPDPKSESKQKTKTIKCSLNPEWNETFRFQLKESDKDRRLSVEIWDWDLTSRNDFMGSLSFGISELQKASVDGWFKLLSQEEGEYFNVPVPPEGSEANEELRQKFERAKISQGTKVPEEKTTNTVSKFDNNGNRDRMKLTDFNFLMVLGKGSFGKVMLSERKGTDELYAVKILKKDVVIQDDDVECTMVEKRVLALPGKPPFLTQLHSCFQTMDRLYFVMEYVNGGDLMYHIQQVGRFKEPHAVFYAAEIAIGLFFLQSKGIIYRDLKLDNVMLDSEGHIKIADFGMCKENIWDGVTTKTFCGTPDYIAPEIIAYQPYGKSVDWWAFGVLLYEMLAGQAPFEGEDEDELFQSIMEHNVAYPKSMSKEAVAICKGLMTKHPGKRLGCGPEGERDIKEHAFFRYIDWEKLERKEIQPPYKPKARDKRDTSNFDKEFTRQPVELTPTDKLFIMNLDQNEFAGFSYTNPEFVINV
The target of a further test is T3, PKCζ (Homo sapiens, UniProt Q05513).
T3 sequence (Q05513 1-592): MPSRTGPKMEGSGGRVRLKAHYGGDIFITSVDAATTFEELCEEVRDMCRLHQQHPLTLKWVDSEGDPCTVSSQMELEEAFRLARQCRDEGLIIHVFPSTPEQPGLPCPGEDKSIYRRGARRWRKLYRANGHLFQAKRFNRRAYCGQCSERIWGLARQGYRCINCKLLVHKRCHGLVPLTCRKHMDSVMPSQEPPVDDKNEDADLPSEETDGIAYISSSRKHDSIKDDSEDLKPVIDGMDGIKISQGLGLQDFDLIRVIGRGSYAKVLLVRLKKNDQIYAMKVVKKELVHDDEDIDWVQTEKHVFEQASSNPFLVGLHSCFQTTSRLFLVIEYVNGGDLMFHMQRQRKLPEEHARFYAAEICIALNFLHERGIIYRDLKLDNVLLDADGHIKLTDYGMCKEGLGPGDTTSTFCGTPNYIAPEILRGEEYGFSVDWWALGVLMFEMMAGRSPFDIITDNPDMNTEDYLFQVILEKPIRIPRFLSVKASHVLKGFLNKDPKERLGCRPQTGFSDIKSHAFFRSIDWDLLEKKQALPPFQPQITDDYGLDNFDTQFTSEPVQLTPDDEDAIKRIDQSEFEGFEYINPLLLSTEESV
The settings on record: read-out: IC50 for PKC; cited from earlier work.

In the next test the target is PKCγ (Homo sapiens, UniProt P05129). The conditions noted are these: read-out: IC50 for PKCy; cited from earlier work.

This is an account of results in patent publication US12570957B2, “Isolated naive pluripotent stem cells and methods of generating same” (Yeda Research and Development Co. Ltd., priority 2013, dated 2026).

Consider `Nc1nccc2c1ncn2C1C=C(CO)C(O)C1O` (stereo not shown) [DzNEP], for which the “pluripotency after passaging in presence of inhibitor” value in the test with naive cells was “retain their pluripotency”.
As for `Oc1ccc(-c2nc(-c3ccncc3)c(-c3ccc(F)cc3)[nH]2)cc1` [SB202190], the “change in OCT4-GFP expression” value in the test with naive hESCs/hiPSCs is listed as “without any change”.
On to “P66a-CC: P66 alpha coiled-coil domain, SEQ ID NO:114, expressed by transfection (PEERERMIKQLKEELRLEEAKLVLLKKLRQSQIQKEATAQK; (1)..(41) P66 alpha coiled-coil domain; listed as Homo sapiens) [Condition P66a-CC]”, for which, in the test with Mbd3 binding to Chd4, the “Chd4 interaction with Mbd3” value was “specific loss of Chd4 interaction with Mbd3”.
With `Cc1ccc(-n2nc(C(C)(C)C)cc2NC(=O)Nc2ccc(OCCN3CCOCC3)c3ccccc23)cc1` [BIRB796], in the test on naive hESCs/hiPSCs, the “change in OCT4-GFP expression” value was “without any change”.
Consider `Nc1ncn([C@H]2C[C@H](O)[C@@H](CO)O2)c(=O)n1` [Condition 5d-AZA], for which the “pluripotency after passaging in presence of inhibitor” value in the test with naive cells is “retain their pluripotency”.
As to `NC(=O)c1ccc(-c2nc(-c3ccc4c(c3)OCO4)c(-c3ccccn3)[nH]2)cc1` [SB431542], in the test on MBD3, the MBD3 protein levels entry is “did not affect”.
Regarding `C[C@@H](N)[C@H]1CC[C@H](C(=O)Nc2ccncc2)CC1` [ROCK inhibitor, Y-27632], the “single cell cloning efficiency” value with primed hESCs and hiPSCs is “up to 22%”; in the test with naive hPSCs, “up to 88%”.
What is called IC50 is the midpoint of a concentration-inhibition curve. Take `COc1ccc2c(c1)c(C1=C(c3c[nH]c4ccccc34)C(=O)NC1=O)cn2CCCN(C)C` [Go6983]: the IC50 is 7 nM on PKCα; 20000 nM on PKCμ; 10 nM at PKCδ; 7 nM on PKCβ; 60 nM at PKCζ; 6 nM at PKCγ. The figures for the MBD3 protein levels entry in the test with MBD3 and with MBD3 (listed as PKC inhibitor) were “significant depletion” and “significant reduction”, respectively.
